Test results published in ChEMBL document CHEMBL4316651, “Halogenated Tyrosine Derivatives from the Tropical Eastern Pacific Zoantharians Antipathozoanthus hickmani and Parazoanthus darwini” (J Nat Prod, 2019).
The source made the active and inactive calls. The calls are words filed in the database; no cut-off is given here.

Assays:
[1] = test system: Staphylococcus aureus; assay: Antimicrobial activity against methicillin-sensitive Staphylococcus aureus ATCC 29213 at 128 ug/ml by CLSI protocol based method; assay type: functional, organism-based
[2] = test system: Staphylococcus aureus; assay: Antimicrobial activity against methicillin-resistant Staphylococcus aureus MB5393 at 128 ug/ml by CLSI protocol based method; assay type: functional, organism-based
[3] = test system: Escherichia coli; assay: Antimicrobial activity against Escherichia coli ATCC 25922 at 128 ug/ml by CLSI protocol based method; assay type: functional, organism-based
[4] = test system: Klebsiella pneumoniae; assay: Antimicrobial activity against Klebsiella pneumoniae ATCC 700603 at 128 ug/ml by CLSI protocol based method; assay type: functional, organism-based
[5] = test system: Acinetobacter baumannii; assay: Antimicrobial activity against Acinetobacter baumannii MB5973 at 128 ug/ml by CLSI protocol based method; assay type: functional, organism-based
[6] = test system: Pseudomonas aeruginosa; assay: Antimicrobial activity against Pseudomonas aeruginosa PAO1 at 128 ug/ml by CLSI protocol based method; assay type: functional, organism-based
[7] = test system: HepG2; assay: Cytotoxicity in human HepG2 cells incubated for 24 hrs by MTT assay; assay type: functional, cell-based
[8] = test system: A549; assay: Cytotoxicity in human A549 cells incubated for 24 hrs by MTT assay; assay type: functional, cell-based
[9] = test system: MIA PaCa-2; assay: Cytotoxicity in human MIAPaCa2 cells incubated for 24 hrs by MTT assay; assay type: functional, cell-based
[10] = test system: Candida albicans; assay: Antimicrobial activity against Candida albicans ATCC 64124 at 128 ug/ml by CLSI protocol based method; assay type: functional, organism-based

**Q.** How did the Activity [1] turn out when `C[N+](C)(C)CC(=O)N[C@@H](Cc1cc(Br)c(O)c(Br)c1)C(=O)O.O=C([O-])C(F)(F)F` was run?
**A.** The Activity was “inactive”.

**Q.** And the Activity [2]?
**A.** The Activity was “inactive”.

**Q.** And the Activity [3]?
**A.** Its Activity is “inactive”.

**Q.** And the Activity [4]?
**A.** Its Activity is “inactive”.

**Q.** And the Activity [5]?
**A.** The Activity was “inactive”.

**Q.** What about the Activity [6] of the same molecule?
**A.** Its Activity is “inactive”.

**Q.** What about the IC50 ([7]; hepg2) of the same molecule?
**A.** The IC50 was “Not Active”.

**Q.** And the IC50 [8]?
**A.** Its IC50 is “Not Active”.

**Q.** What about the IC50 [9] of the same molecule?
**A.** Its IC50 is “Not Active”.

**Q.** What about the Activity [10] of the same molecule?
**A.** The Activity was “inactive”.

**Q.** For `C[N+](C)(C)CC(=O)N[C@@H](Cc1cc(Br)c(O)c(I)c1)C(=O)O.O=C([O-])C(F)(F)F`, which Activity [1] is on record?
**A.** The Activity was “inactive”.

**Q.** And the Activity [2]?
**A.** The Activity was “inactive”.

**Q.** And the Activity [3]?
**A.** Its Activity is “inactive”.

**Q.** And the Activity [4]?
**A.** Its Activity is “inactive”.

**Q.** And the Activity [5]?
**A.** The Activity was “inactive”.

**Q.** What about the Activity [6] of the same molecule?
**A.** Its Activity is “inactive”.

**Q.** And the IC50 ([7]; Homo sapiens, HepG2, 24 h, read-out: IC50)?
**A.** The IC50 was 7.8 µM.

**Q.** What about the IC50 [8] of the same molecule?
**A.** The IC50 was “Not Active”.

**Q.** What about the IC50 [9] of the same molecule?
**A.** The IC50 was “Not Active”.

**Q.** And the Activity [10]?
**A.** The Activity was “inactive”.

**Q.** How did the Activity [1] turn out when `C[N+]1(C)CCC[C@@H]1C(=O)N[C@@H](Cc1cc(Br)c(O)c(Br)c1)C(=O)O.O=C([O-])C(F)(F)F` was run?
**A.** Its Activity is “inactive”.

**Q.** And the Activity [2]?
**A.** The Activity was “inactive”.

**Q.** And the Activity [3]?
**A.** Its Activity is “inactive”.

**Q.** And the Activity [4]?
**A.** The Activity was “inactive”.

**Q.** And the Activity [5]?
**A.** Its Activity is “inactive”.

**Q.** What about the Activity [6] of the same molecule?
**A.** The Activity was “inactive”.

**Q.** What about the IC50 ([7]; hepg2) of the same molecule?
**A.** Its IC50 is “Not Active”.

**Q.** What about the IC50 [8] of the same molecule?
**A.** The IC50 was “Not Active”.

**Q.** What about the IC50 [9] of the same molecule?
**A.** The IC50 was “Not Active”.

**Q.** What about the Activity [10] of the same molecule?
**A.** Its Activity is “inactive”.

**Q.** For `C[N+](C)(C)CCc1cc(Br)c(O)c(I)c1.O=C([O-])C(F)(F)F`, which Activity [1] is on record?
**A.** The Activity was “inactive”.

**Q.** What about the Activity [2] of the same molecule?
**A.** Its Activity is “inactive”.

**Q.** And the Activity [3]?
**A.** The Activity was “inactive”.

**Q.** What about the Activity [4] of the same molecule?
**A.** Its Activity is “inactive”.

**Q.** And the Activity [5]?
**A.** The Activity was “inactive”.

**Q.** What about the Activity [6] of the same molecule?
**A.** The Activity was “inactive”.

**Q.** And the IC50 ([7]; hepg2)?
**A.** The IC50 was “Not Active”.

**Q.** What about the IC50 [8] of the same molecule?
**A.** The IC50 was “Not Active”.

**Q.** What about the IC50 [9] of the same molecule?
**A.** The IC50 was “Not Active”.

**Q.** What about the Activity [10] of the same molecule?
**A.** The Activity was “inactive”.

**Q.** `CCC(C)C(=O)Nc1nc2c([nH]1)[C@@H](C)c1[nH]c(NC(=O)C=C(C)C)nc1CC2` (some centres not stated) was tested. Which Activity [1] did it give?
**A.** Its Activity is “inactive”.

**Q.** What about the Activity [2] of the same molecule?
**A.** Its Activity is “inactive”.

**Q.** What about the Activity [3] of the same molecule?
**A.** Its Activity is “inactive”.

**Q.** What about the Activity [4] of the same molecule?
**A.** Its Activity is “inactive”.

**Q.** What about the Activity [5] of the same molecule?
**A.** The Activity was “inactive”.

**Q.** What about the Activity [6] of the same molecule?
**A.** Its Activity is “inactive”.

**Q.** What about the IC50 ([7]; hepg2) of the same molecule?
**A.** Its IC50 is “Not Active”.

**Q.** And the IC50 [8]?
**A.** The IC50 was “Not Active”.

**Q.** And the IC50 [9]?
**A.** The IC50 was “Not Active”.

**Q.** And the Activity [10]?
**A.** The Activity was “inactive”.

**Q.** `CC(C)=CC(=O)Nc1nc2c([nH]1)[C@H](C)c1[nH]c(NC(=O)C(C)C)nc1CC2` was tested. Which Activity [1] did it give?
**A.** The Activity was “inactive”.

**Q.** And the Activity [2]?
**A.** The Activity was “inactive”.

**Q.** What about the Activity [3] of the same molecule?
**A.** Its Activity is “inactive”.

**Q.** What about the Activity [4] of the same molecule?
**A.** The Activity was “inactive”.

**Q.** And the Activity [5]?
**A.** Its Activity is “inactive”.

**Q.** And the Activity [6]?
**A.** The Activity was “inactive”.

**Q.** What about the IC50 ([7]; hepg2) of the same molecule?
**A.** Its IC50 is “Not Active”.

**Q.** And the IC50 [8]?
**A.** Its IC50 is “Not Active”.

**Q.** And the IC50 [9]?
**A.** The IC50 was “Not Active”.

**Q.** And the Activity [10]?
**A.** Its Activity is “inactive”.

**Q.** Which results are given for `C[N+](C)(C)CCc1cc(I)c(O)c(I)c1.O=C([O-])C(F)(F)F`?
**A.** Activity [1]: inactive; Activity [2]: inactive; Activity [3]: inactive; Activity [4]: inactive; Activity [5]: inactive; Activity [6]: inactive; IC50 ([7]; hepg2): Not Active; IC50 [8]: Not Active; IC50 [9]: Not Active; Activity [10]: inactive

**Q.** Which Activity [1] does the source give for `C[N+]1(C)CCC[C@@H]1C(=O)N[C@@H](Cc1cc(Br)c(O)c(I)c1)C(=O)O` here?
**A.** Its Activity is “inactive”.

**Q.** What about the Activity [2] of the same molecule?
**A.** The Activity was “inactive”.

**Q.** What about the Activity [3] of the same molecule?
**A.** The Activity was “inactive”.

**Q.** What about the Activity [4] of the same molecule?
**A.** The Activity was “inactive”.

**Q.** And the Activity [5]?
**A.** The Activity was “inactive”.

**Q.** What about the Activity [6] of the same molecule?
**A.** Its Activity is “inactive”.

**Q.** What about the Activity [10] of the same molecule?
**A.** Its Activity is “inactive”.
